Measurements published in patent US11400089B2, “Multikinase inhibitors and uses in reproductive and digestive tract fibrosis” (AIVIVA BIOPHARMA, INC., priority 2017, dated 2022).
Structures can show the parent of a compound that is named as a salt.

What was measured:
[1] = test system: testosterone and phenylephrine induced benign prostate hyperplasia; assay: testosterone and phenylephrine induced benign prostate hyperplasia in rats (Example 1); type: in vivo, Male Wistar rats; settings: for epithelial hyperplasia score, representative image of dorsolateral prostate: FIG. 2; for mean dorsolateral prostate hyperplasia scores compared to vehicle treatment: induced rats, intra-prostate days 15 and 29, axitinib, sorafenib, FIG. 3; for mean prostate weight (prostate weight/100 g body weight): day 42, FIG. 1
Procedure: Wistar and Sprague-Dawley strains of rats are susceptible to developing benign prostatic hyperplasia after treatment with exogenous testosterone and can serve as a model of hyperplasia induced by endogenous hormones, i.e., BPH in males and uterine fibroids (UF) in females. A study was conducted to determine the effects of test compounds and vehicle on testosterone and phenylephrine induced benign prostate hyperplasia in rats. Male Wistar rats were induced with testosterone (2 mg/kg) plus phenylephrine (5 mg/kg) administered daily by subcutaneous injection on days 1 through 28. Vehicle or the multikinase test compounds, axitinib (1%), sorafenib (1%), pirfenidone (2.5%) and riociguat (1%), were administered by intra-prostate injection (0.2 mL) on days 15 and 29. Animals were euthanized on day 42. Body weights were determined. Prostate glands were harvested and weighed.
Prostate weight/100 g body weight was determined for each treatment group (FIG. 1). […] Rather, only multikinase inhibitors with a certain inhibitory spectrum would work.
At necropsy, the dorsolateral and ventral lobes of the prostate were separated and cut into halves. The left halves were fixed in 10% neutral buffered formalin, sectioned, and stained with Hematoxylin and Eosin (H&E). Glandular hyperplasia was recognized as an increase in epithelial cells within normal appearing gland profiles, reflected by stratification of epithelial cells and increased presence of epithelial tufting and papillary projections (FIG. 2). Stromal changes were examined microscopically. These changes included inflammation and tissue fibroplasia. Each section was given a severity score ranging from 0 (not present) through 5 (severe).

[2] = test system: full-thickness dermal wounds; assay: full-thickness dermal wounds in rabbit ear, histopathology (Example 5); type: in vivo, New Zealand White rabbits; set-up: average total score of test wounds lower than untreated/control wounds by / Neovascularization (histopathology score, treated mean) / Fibrosis/Collagen (histopathology score, treated mean) / Reepithelialization (histopathology score, treated mean) / Total Score (histopathology, treated mean): scale not given here; settings: for Fibrosis/Collagen (histopathology score, treated mean) / Neovascularization (histopathology score, treated mean) / Reepithelialization (histopathology score, treated mean) / Total Score (histopathology, treated mean): 1% intradermal dosing days 15 and 29, Day 42
Procedure: Test compounds were examined in full-thickness dermal wounds in rabbits. Seven male New Zealand White rabbits, ranging in body weight from 3.03 to 3.40 kg were used in this study. Four wounds were placed on the ventral surface of both ears using an 8 mm skin punch biopsy. Axitinib (1.0%), nintedanib (1.0%), lenvatinib (1.0%), sorafenib (1.0%) and sunitinib (1.0%) were administered by intradermal or intralesional injection on days 15 and 29 following surgery. Animals were euthanized on Day 42 and trauma sites were harvested and divided in half. One half was preserved in formalin for histological examination and the other half frozen for TGF beta analysis. Tissue H&E staining was evaluated semi-quantitatively for inflammation and neovascularization. Tissue fibrosis and collagen organization were evaluated by Mason's trichrome staining. Scores for four intradermal sites receiving test articles were averaged for each rabbit. Most scar tissues were composed of neovascularization, fibroblast hyperplasia, collagen disorganization and re-epithelialization.

[3] = test system: suture induced ocular fibrosis; assay: suture induced ocular fibrosis model in rabbits (Example 4); type: in vivo
Procedure: A study was conducted to determine the potential beneficial effects of topical administration of test compounds and vehicle in a suture induced ocular fibrosis model in rabbits. Sutures were placed intrastromally, under a microscope, in the cornea of rabbits. In each eye, one 9.0 silk suture was placed, in a vertical position, temporal to the center of the cornea and a second suture was placed nasal to the corneal center. Each suture had two stromal incursions approximately 2 mm from the limbus. Test compounds having a certain spectrum of multikinase inhibition activities or vehicle were topically instilled (35 μL/eye) in the eyes three times daily for 10 days following the day of surgery. The treatment groups include vehicle, axitinib (0.3%), nintedanib (0.3%), pirfenidone (1%), riociguat (0.3%), sorafenib (0.3%) and lenvatinib (0.3%). Six left eyes were used per treatment group.
During the in-life phase, gross ocular observations of very slight to moderate conjunctival congestion and swelling were similar among groups, including the vehicle control. The animals were sacrificed on Day 11 and eyes enucleated and dissected for histopathological evaluation.

TGF beta mRNA expression = TGF beta mRNA expression in rabbit dermal wound model (Example 5); type: in vivo, New Zealand White rabbits; settings: 1% intradermal days 15 and 29; Day 42; FIG. 10
Procedure: Test compounds were examined in full-thickness dermal wounds in rabbits. Seven male New Zealand White rabbits, ranging in body weight from 3.03 to 3.40 kg were used in this study. Four wounds were placed on the ventral surface of both ears using an 8 mm skin punch biopsy. Axitinib (1.0%), nintedanib (1.0%), lenvatinib (1.0%), sorafenib (1.0%) and sunitinib (1.0%) were administered by intradermal or intralesional injection on days 15 and 29 following surgery. Animals were euthanized on Day 42 and trauma sites were harvested and divided in half. One half was preserved in formalin for histological examination and the other half frozen for TGF beta analysis.
TGF beta mRNA expression in treated trauma samples was compared to expression in untreated samples. In general, TGF beta expression in treated samples was lower relative to untreated trauma samples.

[4] = test system: TGF beta 1 protein levels; assay: TGF beta 1 protein level (ELISA) in pig linear incision wound model (Example 6); type: in vivo, Gottingen minipigs; settings: 16 mg per wound site intradermal; Days 4, 7 and 9; FIG. 11
Procedure: Full-thickness linear incision wounds were created in Gottingen minipigs on Day 1. 10 wounds approximately 3 cm in length and spaced at least 5 cm apart were created on the dorsal surface of the animals, perpendicular to the spine. Test agents included nintedanib (2%), lenvatinib (2%), sorafenib (1%), axitinib (2%) and vehicle control. Test agents were administered by intradermal injection immediately after wound creation. The dose of nintedanib, lenvatinib, sorafenib, or axitinib was 16 mg per wound site. Three minipigs were dosed in a similar manner. One minipig was sacrificed on Day 4, one on Day 7, and one on Day 9.
At the time of sacrifice, two dermal punch biopsies (4 mm) from each side of the wound sites were collected. Two biopsies were flash frozen in liquid nitrogen and stored at −80° C. prior to processing by protein extraction and ELISA (enzyme-linked immunosorbent assay) analysis. TGF beta protein levels were measured on Days 4, 7 and 9.

[5] = test system: testosterone and phenylephrine induced benign prostate hyperplasia; assay: testosterone and phenylephrine induced benign prostate hyperplasia in rats (Example 3); type: in vivo, Male Wistar rats; settings: for epithelial (glandular) hyperplasia score, dorsolateral prostate, representative image: grade 0 (not present) to 5 (severe), FIG. 4
Procedure: This study was conducted to determine the effects of multikinase inhibitors and vehicle on testosterone and phenylephrine induced benign prostate hyperplasia in rats. Male Wistar rats were induced with testosterone (2 mg/kg) plus phenylephrine (5 mg/kg) administered daily by subcutaneous injection on days 5 through 32. Vehicle or test compounds (all 1% w/v), nintedanib, sunitinib or lenvatinib and doxazosin mesylate, were administered by intra-prostate injection (0.4 ml) in dorsolateral and ventral lobes on days 1 and 18. Animals were euthanized on day 32.
At necropsy, the ventral and dorsolateral lobes of the prostate were separated and then cut into halves. The left halves were fixed in 10% neutral buffered formalin, sectioned, and stained with Hematoxylin and Eosin (H&E). Histological changes in these sections were scored. Epithelial hyperplasia was recognized as an increase in epithelial cells within normal-appearing gland profiles, primarily reflected by stratification of epithelial cells and increased presence of epithelial tufting and papillary projections. A severity grade of 0 (not present) through 5 (severe) was assigned to each sample.

[6] = TE+PE induced rats, axitinib 1%, sorafenib 1%, pirfenidone 2.5%, severity score 0 (not present) to 5 (severe), induced vehicle group score=2
[7] = 1% intradermal, rabbit ear wound
[8] = TE+PE induced rats, intra-prostate 0.4 ml days 1 and 18, day 32, induced vehicle score=4

SMILES | epithelial hyperplasia score, representative image of dorsolateral prostate [1, 6] | mean dorsolateral prostate hyperplasia scores compared to vehicle treatment ([1]; riociguat 1%, pirfenidone 2.5%) | Fibrosis/Collagen (histopathology score, treated mean) ([2]; rabbit ear wound) | Neovascularization (histopathology score, treated mean) ([2]; rabbit ear wound) | Reepithelialization (histopathology score, treated mean) ([2]; rabbit ear wound) | Total Score (histopathology, treated mean) ([2]; rabbit ear wound) | epithelial (glandular) hyperplasia score, dorsolateral prostate, representative image [5, 8] | also measured
Cc1ccc(=O)n(-c2ccccc2)c1 [pirfenidone] | 1 | demonstrated a decrease in hyperplasia scores |  |  |  |  |  | 
CNC(=O)c1ccccc1Sc1ccc2c(/C=C/c3ccccn3)n[nH]c2c1 [axitinib] | 1 |  | 3.3 | 1 | 0.3 | 4.6 |  | average total score of test wounds lower than untreated/control wounds by ([2]; 1% intradermal, difference treated vs control): 1.4
CNC(=O)c1cc(Oc2ccc(NC(=O)Nc3ccc(Cl)c(C(F)(F)F)c3)cc2)ccn1 [sorafenib] | 2 | did not lead to reduction in hyperplasia | 2.5 | 3 | 0.3 | 5.8 |  | areas of neovascularization on the corneal surface ([3]; 0.3% topical 35 μL/eye three times daily for 10 days, FIG. 8): efficacious in reducing the areas of neovascularization; fibroplasia and/or collagen density (histological staining) ([3]; 0.3% topical three times daily for 10 days, Day 11, FIG. 9): little or no effect on fibroplasia or collagen formation; alpha SMA staining (immunohistochemical analysis) ([3]; 0.3% topical three times daily for 10 days, relative to vehicle, FIG. 9): no effect on alpha SMA relative to vehicle treatment; mean folds of TGF beta mRNA expression vs untreated trauma samples (TGF beta mRNA expression): do not show mean TGF beta expression levels significantly different from the untreated trauma samples; mean prostate weight (prostate weight/100 g body weight) ([1]; TE+PE induced rats, 1% test article, intra-prostate 0.2 mL days 15 and 29, compared to vehicle-treated group 1): did not show a reduction in the mean prostate weight; TGF beta 1 protein levels in wound [4]: much less effective; angiogenesis and fibrosis at treated trauma sites (histopathology summary) [2, 7]: do not show any reduction in angiogenesis and fibrosis; fibrosis compared with control wound sites [2, 7]: similar, or increased fibrosis compared to control sites; neovascularization compared with untreated wounds [2, 7]: slightly increased neovascularization; scar formation overall compared with control sites [2, 7]: does not appear to have reduced scar formation
COC(=O)N(C)c1c(N)nc(-c2nn(Cc3ccccc3F)c3ncccc23)nc1N [riociguat] |  | demonstrated a decrease in hyperplasia scores |  |  |  |  |  | epithelial hyperplasia score, representative image of dorsolateral prostate ([1]; TE induced rat, riociguat 1%, severity score 0 to 5, TE-induced group 6 score=2): 1; mean prostate weight (prostate weight/100 g body weight) ([1]; TE induced rats, riociguat 1% intra-prostate days 15 and 29, compared to group 6): resulted in a reduction in the mean prostate weight
CCN(CC)CCNC(=O)c1c(C)[nH]c(/C=C2\C(=O)Nc3ccc(F)cc32)c1C [sunitinib] |  |  | 3.7 | 4 | 0 | 7.7 | 3 | epithelial (glandular) hyperplasia score, ventral prostate, representative image ([5]; 768 h): 3
COc1cc2nc(N3CCN(C(=O)C4COc5ccccc5O4)CC3)nc(N)c2cc1OC (centres unmarked) [doxazosin, doxazosin mesylate] |  |  |  |  |  |  | 3 | epithelial (glandular) hyperplasia score, ventral prostate, representative image ([5]; TE+PE induced rats, intra-prostate 0.4 ml days 1 and 18, day 32, grade 0 to 5, induced vehicle score=4, FIG. 5): 3
